pKd: −log10 of the molar value. Values joined by “and” are separate entries in the source; they are usually repeats but may differ in a detail not shown here. Identical values can stand only once. Ends that are not written are not given here. Peptide text beside a SMILES is read from it.
Legend:
[1] = molecular target: empty disulfide-stabilized HLA-A*02:01(Y84C/A139C) in complex with beta-2 microglobulin (human); experiment: isothermal analysis of nanoscale differential scanning fluorimetry (iDSF)
[2] = molecular target: T1, dsA2: HLA-A*02:01(Y84C/A139C) disulfide mutant heavy chain / β2m complex (Homo sapiens, UniProt P04439, A163C/D140Y/D185E/D98H/E176V/E277Q/G131W/G231S/I119V/I121R/I166T/I218V/L300P/L318F/N151K/N90K/P208A/P217A/Q86G/Q94H/R138H/R169H/T345S/Y108C); experiment: native mass spectrometry (nMS) of peptide binding to empty dsA2;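 also: native nano-electrospray MS on Q-Tof II in positive mode, dsA2 at 10 µM with peptide 50–200 µM, incubated ≥10 min on ice, argon collision gas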
T1 construct: made in house; host or cells: Escherichia coli (pET3a)

[3] = molecular target: T2, dsA2: HLA-A*02:01(Y84C/A139C) disulfide mutant heavy chain / β2m complex (Homo sapiens, UniProt P04439, D140Y/D185E/D98H/E176V/E277Q/G131W/G231S/I119V/I121R/I166T/I218V/L300P/L318F/N151K/N90K/P208A/P217A/Q86G/Q94H/R138H/R169H/T345S/A163C/Y108C); experiment: as above; conditions: for AUC dsA2 (empty) / AUC dsA2/erucamide / AUC dsA2/pep / AUC dsA2/pep/pep: cone 150 V, ratio 1:5, raw data, mean of >=3 measurements
T2 construct: made in house; host or cells: Escherichia coli (pET3a)

[4] = molecular target: T1, dsA2: HLA-A*02:01(Y84C/A139C) disulfide mutant heavy chain / β2m complex; experiment: biochemical; assay type: binding
[5] = molecular target: empty disulfide-stabilized HLA-A*02:01(Y84C/A139C) in complex with beta-2 microglobulin (human); experiment: native MS

Row | Compound | pKd [1] | AUC dsA2 (empty) ([3]; acceleration voltage 10 V) | AUC dsA2/erucamide ([3]; acceleration voltage 10 V) | AUC dsA2/pep ([3]; acceleration voltage 10 V) | AUC dsA2/pep/pep ([3]; acceleration voltage 10 V) | AUC dsA2 (empty) ([3]; acceleration voltage 25 V) | AUC dsA2/erucamide ([3]; acceleration voltage 25 V) | AUC dsA2/pep ([3]; acceleration voltage 25 V) | AUC dsA2/pep/pep ([3]; acceleration voltage 25 V) | AUC dsA2 (empty) ([3]; acceleration voltage 50 V) | AUC dsA2/erucamide ([3]; acceleration voltage 50 V) | AUC dsA2/pep ([3]; acceleration voltage 50 V) | AUC dsA2/pep/pep ([3]; acceleration voltage 50 V) | pKd [4] | other results
1 | MV5 (MVATV), truncated NV9 variant (peptide) | 5.80 | – | – | – | – | – | – | – | – | – | – | – | – | – | –
2 | PMVATV [PV6] | – | 68% | 19% | 12% | 0.5% | 68% | 19% | 13% | 0.5% | 90% | 5% | 5% | 0.1% | 4.82 | pKd ([2]; Kd,high): 3.52; pKd ([2]; Kd,low): 4.82
3 | NM5 (NLVPM), truncated NV9 variant (peptide) | 4.96 | – | – | – | – | – | – | – | – | – | – | – | – | – | –
4 | VV7 (VPMVATV), truncated NV9 variant (peptide) | 5.11 | – | – | – | – | – | – | – | – | – | – | – | – | – | –
5 | NV6 (NLVPMV), truncated NV9 variant (peptide) | 5.05 | – | – | – | – | – | – | – | – | – | – | – | – | – | –
6 | NLVPM [NM5] | – | 62% | 19% | 17.9% | 1.0% | 64% | 17% | 18.0% | 1.2% | 90.3% | 1.3% | 8.1% | 0.3% | 4.96 | pKd ([2]; Kd,high): 3.74; pKd ([2]; Kd,low): 4.82
7 | CC(C)C[C@H](NC(=O)[C@@H](N)CC(N)=O)C(=O)N[C@H](C(=O)N1CCC[C@H]1C(=O)O)C(C)C [NP4] (H-NLVP-OH) | – | 55% | 33.8% | 11% | 0.6% | 57.8% | 31.1% | 10.4% | 0.69% | 92.4% | 4.3% | 2.6% | 0.8% | 4.30 | pKd [2]: 3.46 and 4.00
8 | NA7 (NLVPMVA), truncated NV9 variant (peptide) | 5.44 | – | – | – | – | – | – | – | – | – | – | – | – | – | –
9 | VV4 (VATV), truncated NV9 variant (peptide) | 4.30 | – | – | – | – | – | – | – | – | – | – | – | – | – | –
10 | CC(C)[C@H](N)C(=O)N[C@@H](C)C(=O)N[C@H](C(=O)N[C@H](C(=O)O)C(C)C)[C@@H](C)O [VV4] (H-VATV-OH) | – | 68% | 18.093% | 14% | 0% | 68% | 17.6% | 14% | 0% | 92% | 4.0% | 4.1% | 0% | 4.30 | –
11 | Ac-NV9-NH2, NV9 with acetylated N-terminus and amidated C-terminus (peptide) | 5.40 | – | – | – | – | – | – | – | – | – | – | – | – | – | pKd [5]: 4.10
12 | PV6 (PMVATV), truncated NV9 variant (peptide) | 4.82 | – | – | – | – | – | – | – | – | – | – | – | – | – | –
13 | NLVPMVA [NA7] | – | 75% | 8% | 16% | 0.8% | 68% | 11% | 19% | 1.4% | 86% | 1.8% | 12% | 0.5% | 5.44 | pKd ([2]; Kd,high): 3.68; pKd ([2]; Kd,low): 5.70
14 | CCCCCCCC/C=C\CCCCCCCCCCCC(N)=O [erucamide, (Z)-docos-13-enamide] | – | – | – | – | – | – | – | – | – | – | – | – | – | – | occupancy of dsA2 with erucamide ([3]; no peptide, linear extrapolation to cone voltage <=48 V (experimentally unfeasible)): 100%
15 | LVPMVATV [LV8] | – | 42% | 1.7% | 54% | 2.8% | 40% | 1.5% | 54% | 3.9% | 53% | 0.4% | 45% | 1.6% | 8.10 | –
16 | NLVPMV [NV6] | – | 66% | 24% | 10% | 0.5% | 66% | 22% | 11% | 0.69% | 91.2% | 2.9% | 4.1% | 1.9% | 5.05 | pKd ([2]; Kd,high): 3.42; pKd ([2]; Kd,low): 4.52
17 | GLGGGGGGV [GV9] | – | 52% | 4.3% | 43 ± 2% and 43% | 1.5 ± 0.4% and 1.5% | 50% | 5% | 43% | 2.2% | 62% | 1.7% | 35% | 1.1% | – | pKd ([2]; read-out: Kd,high): 4.46; pKd ([2]; read-out: Kd,low): 6.30; pKd ([4]; dsA2 2.2 µM, 20 mM Tris pH 8, 150 mM NaCl, twofold serial dilution, 11 concentrations, two independent measurements, values marked * (below 200 nM) not reliable, read-out: Kd,iDSF): 6.44
18 | NLVPMVAT [NT8] | – | 47.3% | 24% | 28% | 0.6% | 50% | 21% | 28.2% | 1% | 75% | 1.6% | 23% | 0.2% | 5.59 | pKd [2]: 4.04 and 4.52
19 | MVATV [MV5] | – | 64% | 10.4% | 23% | 3.2% | 63% | 10.4% | 23% | 3.7% | 80% | 3.3% | 15% | 1.5% | 5.80 | pKd ([2]; Kd,high): 3.96; pKd ([2]; Kd,low): 5.52
20 | NP4 (NLVP), truncated NV9 variant (peptide) | 4.30 | – | – | – | – | – | – | – | – | – | – | – | – | – | pKd [5]: 3.46 and 4.00
21 | LV8 (LVPMVATV), truncated NV9 variant (peptide) | 8.10 | – | – | – | – | – | – | – | – | – | – | – | – | – | pKd [5]: 4.77
22 | VPMVATV [VV7] | – | 61.8% | 19% | 17% | 1.7% | 62% | 20.2% | 17% | 1.16% | 96% | 1.3% | 3% | 0% | 5.11 | pKd ([2]; Kd,high): 3.74; pKd ([2]; Kd,low): 4.82
23 | NT8 (NLVPMVAT), truncated NV9 variant (peptide) | 5.59 | – | – | – | – | – | – | – | – | – | – | – | – | – | pKd [5]: 4.04
